According to patent EP1383793B1 (priority 2000, dated 2001):
Residues, ends and D or L forms follow the SMILES beside them.

Test system: adipocytes
Test: 3H-glucose uptake into adipocytes (fat cell assay, FFC)
Format: cell-based, Mouse
Set-up: key to FFC: 0 is no effect; + is agonist; - is antagonist

Structure (SMILES) | FFC
CC(C)[C@@H](NC(=O)[C@@H](Cc1ccccc1)NC(=O)[C@@H](Cc1c[nH]c2ccccc12)NC(=O)[C@@H](CC(=O)O)NC(=O)[C@@H](Cc1ccc(O)cc1)NC(=O)[C@@H](Cc1ccccc1)NC(=O)[C@@H](CC(N)=O)NC(=O)[C@@H](CCC(=O)O)NC(=O)[C@@H](Cc1c[nH]cn1)NC(=O)[C@H](N)Cc1ccccc1)C(=O)N[C@H](CCCNC(=N)N)C(=O)N[C@H](CCC(N)=O)C(=O)N[C@@H](C(=O)N[C@H](CO)C(=O)N[C@H](CCCCN)C(=O)N[C@H](CCCCN)C(=O)O)C(C)C [Clone S114] | 0
CC[C@H](C)[C@H](NC(=O)[C@H](C)NC(=O)[C@H](CC(N)=O)NC(=O)[C@H](Cc1ccc(O)cc1)NC(=O)[C@H](Cc1ccccc1)NC(=O)CNC(=O)[C@H](CC(=O)O)NC(=O)[C@@H](N)CO)C(=O)N[C@@H](CCC(=O)O)C(=O)N[C@@H](CC(C)C)C(=O)N[C@@H](CC(C)C)C(=O)N[C@@H](CO)C(=O)O [Clone S118] | +
CC(C)C[C@H](NC(=O)CNC(=O)[C@H](CCC(N)=O)NC(=O)[C@H](Cc1ccccc1)NC(=O)[C@H](Cc1ccc(O)cc1)NC(=O)[C@H](CO)NC(=O)[C@H](Cc1ccc(O)cc1)NC(=O)[C@H](Cc1ccccc1)NC(=O)[C@H](CC(=O)O)NC(=O)[C@H](CO)NC(=O)[C@@H](N)Cc1c[nH]c2ccccc12)C(=O)N[C@@H](CC(=O)O)C(=O)O [Clone S127] | 0
CC(C)[C@H](NC(=O)[C@H](Cc1ccccc1)NC(=O)[C@H](Cc1c[nH]c2ccccc12)NC(=O)[C@H](CC(=O)O)NC(=O)[C@H](Cc1ccc(O)cc1)NC(=O)[C@H](Cc1ccccc1)NC(=O)[C@H](CC(N)=O)NC(=O)[C@H](CCC(=O)O)NC(=O)[C@H](Cc1c[nH]cn1)NC(=O)[C@@H](N)Cc1ccccc1)C(=O)N[C@@H](CCCNC(=N)N)C(=O)N[C@@H](CCC(N)=O)C(=O)N[C@H](C(=O)N[C@@H](CO)C(=O)N[C@@H](CCCCN)C(=O)N[C@@H](CCCCN)C(=O)N[C@@H](CNC(=O)CON)C(N)=O)C(C)C [Clone S131] | +
CC(C)[C@H](NC(=O)[C@H](Cc1ccccc1)NC(=O)[C@H](Cc1c[nH]c2ccccc12)NC(=O)CNC(=O)[C@H](Cc1ccc(O)cc1)NC(=O)[C@H](Cc1ccccc1)NC(=O)[C@H](CC(N)=O)NC(=O)[C@H](CCC(=O)O)NC(=O)[C@@H](N)Cc1c[nH]cn1)C(=O)N[C@@H](CCCNC(=N)N)C(=O)N[C@@H](CCC(N)=O)C(=O)N[C@H](C(=O)N[C@@H](CO)C(=O)N[C@@H](CCCCN)C(=O)N[C@@H](CCCCN)C(=O)O)C(C)C [Clone S137] | 0
CC(C)[C@H](NC(=O)[C@H](Cc1ccccc1)NC(=O)[C@H](Cc1c[nH]c2ccccc12)NC(=O)[C@H](CC(=O)O)NC(=O)[C@H](Cc1ccc(O)cc1)NC(=O)[C@H](Cc1ccccc1)NC(=O)[C@H](CC(N)=O)NC(=O)[C@H](CCC(=O)O)NC(=O)[C@H](Cc1c[nH]cn1)NC(=O)[C@@H](N)Cc1ccccc1)C(=O)N[C@@H](CCCNC(=N)N)C(=O)N[C@@H](CCC(N)=O)C(=O)N[C@H](C(=O)N[C@@H](CO)C(=O)N[C@@H](CCCCN)C(=O)N[C@@H](CCCCN)C(=O)NCC[C@H](NC(=O)[C@H](CCCCN)NC(=O)[C@H](CCCCN)NC(=O)[C@H](CO)NC(=O)[C@@H](NC(=O)[C@H](CCC(N)=O)NC(=O)[C@H](CCCNC(=N)N)NC(=O)[C@@H](NC(=O)[C@H](Cc1ccccc1)NC(=O)[C@H](Cc1c[nH]c2ccccc12)NC(=O)[C@H](CC(=O)O)NC(=O)[C@H](Cc1ccc(O)cc1)NC(=O)[C@H](Cc1ccccc1)NC(=O)[C@H](CC(N)=O)NC(=O)[C@H](CCC(=O)O)NC(=O)[C@H](Cc1c[nH]cn1)NC(=O)[C@@H](N)Cc1ccccc1)C(C)C)C(C)C)C(N)=O)C(C)C [Clone S152] | +
CC(C)C[C@H](NC(=O)[C@H](CCC(=O)O)NC(=O)[C@H](C)NC(=O)[C@@H](NC(=O)[C@H](Cc1ccccc1)NC(=O)[C@H](Cc1c[nH]c2ccccc12)NC(=O)[C@H](CC(=O)O)NC(=O)[C@H](Cc1ccc(O)cc1)NC(=O)[C@H](Cc1ccccc1)NC(=O)[C@H](CC(N)=O)NC(=O)[C@H](C)NC(=O)[C@H](CC(N)=O)NC(=O)[C@H](CCCNC(=N)N)NC(=O)[C@H](CCC(N)=O)NC(=O)[C@H](CC(C)C)NC(=O)[C@@H](N)Cc1c[nH]c2ccccc12)C(C)C)C(=O)NCC(=O)O [Clone S237] | 0
CC(C)C[C@H](NC(=O)[C@H](CCC(=O)O)NC(=O)[C@H](C)NC(=O)[C@@H](NC(=O)[C@H](Cc1ccccc1)NC(=O)[C@H](Cc1c[nH]c2ccccc12)NC(=O)[C@H](CC(=O)O)NC(=O)[C@H](Cc1ccc(O)cc1)NC(=O)[C@H](Cc1ccccc1)NC(=O)[C@H](CC(N)=O)NC(=O)[C@H](C)NC(=O)[C@H](CC(N)=O)NC(=O)[C@H](CCCNC(=N)N)NC(=O)[C@H](CCC(N)=O)NC(=O)[C@@H](N)CC(C)C)C(C)C)C(=O)NCC(=O)O [Clone S238] | 0
CC(C)C[C@H](NC(=O)[C@H](CCC(=O)O)NC(=O)[C@H](C)NC(=O)[C@@H](NC(=O)[C@H](Cc1ccccc1)NC(=O)[C@H](Cc1c[nH]c2ccccc12)NC(=O)[C@H](CC(=O)O)NC(=O)[C@H](Cc1ccc(O)cc1)NC(=O)[C@H](Cc1ccccc1)NC(=O)[C@H](CC(N)=O)NC(=O)[C@H](C)NC(=O)[C@H](CC(N)=O)NC(=O)[C@H](CCCNC(=N)N)NC(=O)[C@@H](N)CCC(N)=O)C(C)C)C(=O)NCC(=O)O [Clone S239] | 0
CC(C)C[C@@H]1NC(=O)[C@H](CO)NC(=O)[C@H](C)NC(=O)CNC(=O)CNC(=O)[C@H](Cc2ccccc2)NC(=O)[C@H](CC(C)C)NC(=O)[C@H](CCC(=O)O)NC(=O)[C@H](CCC(N)=O)NC(=O)[C@H](CC(C)C)NC(=O)[C@H](Cc2ccccc2)NC(=O)[C@@H](NC(=O)[C@H](CC(C)C)NC(=O)[C@@H]2CCCN2)CSSC[C@@H](C(=O)N[C@@H](CO)C(=O)NCC(N)=O)NC(=O)[C@H](Cc2ccc(O)cc2)NC(=O)CNC(=O)CNC1=O [Clone S262] (HELM PEPTIDE1{P.L.C.F.L.Q.E.L.F.G.G.A.S.L.G.G.Y.C.S.G.[am]}$PEPTIDE1,PEPTIDE1,3:R3-18:R3$$$V2.0; N-terminus assumed; bridges inferred) | 0
CC[C@H](C)[C@@H]1NC(=O)[C@H](CCC(=O)O)NC(=O)[C@@H](NC(=O)[C@H](Cc2c[nH]c3ccccc23)NC(=O)[C@@H](NC(=O)[C@H](Cc2c[nH]c3ccccc23)NC(=O)[C@H](C)NC(=O)[C@H](CCCNC(=N)N)NC(=O)[C@H](CCC(=O)O)NC(=O)[C@H](CCC(N)=O)NC(=O)[C@H](CCC(=O)O)NC(=O)[C@H](CC(C)C)NC(=O)[C@@H](N)Cc2c[nH]c3ccccc23)[C@@H](C)CC)CSSC[C@@H](C(=O)N[C@@H](CCCNC(=N)N)C(=O)N[C@@H](C)C(N)=O)NC(=O)CNC(=O)[C@H](CO)NC(=O)CNC(=O)[C@H](CCC(N)=O)NC1=O [Clone S263] (HELM PEPTIDE1{W.L.E.Q.E.R.A.W.I.W.C.E.I.Q.G.S.G.C.R.A.[am]}$PEPTIDE1,PEPTIDE1,11:R3-18:R3$$$V2.0; N-terminus assumed; bridges inferred) | 0
